Article PMC12904578 (PLOS Pathogens, 2026)
pKd: −log10 of the molar value. Entries after “also recorded” stand apart in the source; their conditions may differ.

Assays:
[1] = tested on: VN1194 H5 HA from A/Vietnam/1194/2004 (H5N1); settings: cited from earlier work
H5FR H5 HA = assay type: binding, A/duck/France/161108h/2016 (H5N8)
[2] = tested on: Sh2 H7 HA from A/Shanghai/2/2013 (H7N9); settings: cited from earlier work
[3] = target: H5FR H5 HA ectodomain from A/duck/France/161108h/2016 (H5N8), polyhistidine-tagged (SPR form) (influenza A virus A/duck/France/161108h/2016 (H5N8)); test: SPR

Compound: CC(=O)NC1C(O)OC(CO)C(OC2OC(CO)C(O)C(OC3(C(=O)O)CC(O)C(NC(C)=O)C(C(O)C(O)CO)O3)C2O)C1O (centres unmarked) [3´-SLN, NeuAcα2–3Galβ1–4GlcNAc]
- Siaα2–3Gal linkage configuration of 3´-SLN in VN1194 H5 HA [1]: trans configuration

Compound: NeuAcα2–3Galβ1–3GlcNAcβ1–3Galβ1–4Glc [LSTa]
- LSTa residues visible in VN1194 H5 HA complex [1]: only Sia-1 and Gal-2 were visible
- binding interactions in H5FR HA receptor binding site (H5FR H5 HA): Sia-1, Gal-2 and GlcNAc-3 were ordered; also recorded: similarly to VN1194 HA or H5VN HA

Compound: NeuAcα2–3Galβ1–4GlcNAcβ1–3GalNAcα-Thr [glycan #21]
- binding mode of glycan in Sh2 H7 HA [2]: adopts a cis configuration in the Siaα2–3Gal linkage

Compound: O-linked glycopeptide compound 2 (core 1 on peptide FVTIG, no sialic acid)
- pKd [3]: < 3.19
